Patent US20130039928A1, “COMPOSITIONS AND METHODS FOR REVERSING CORTICOSTEROID RESISTANCE OR TREATING RESPIRATORY INFECTIONS” (priority 2010, published 2013)
Like-named read-outs stand apart in the source and are kept apart here. Peptide text beside a SMILES is read from it. * marks the point of attachment. Cbz = O=C(OCc1ccccc1)*

Legend:
[1] = tested on: HDAC2; assay type: cell-based, human
Method: (§1) For inducing corticosteroid resistance, PMs were exposed to cigarette smoke condensate (CSC, 100 μg/ml; Murty Pharmaceuticals, Lexington, Ky.) for 16 h. Exposure to S-nitrosoglutathione (GSNO, 10 μM) was limited to 4 h. […] For assessing corticosteroid responsiveness, macrophages were incubated with dexamethasone (1 μM, Sigma) for 1 h followed by LPS (100 ng/ml, Sigma) for additional 4 h.
(§2) HDAC activity was measured using a fluorescent derivative of ε-acetyl-lysine from Enzo life sciences (Farmingdale, N.Y.) according to the manufacturer's recommendations. HDAC2 was immunoprecipitated for analysis of enzymatic activity.
(§3) Macrophage cell or lung tissue extracts were prepared by using 100 μL of immunoprecipitation buffer (50 mM Tris-HCl, pH 8.0, 150 mM NaCl, 1.0% Triton X-100, 0.5% NP-40, 0.1% SDS, 0.5% deoxycholate, and complete protease inhibitor cocktail) from Roche (Morristown, N.J.). The lysis mixture was incubated on ice for 15 minutes and microcentrifuged for 10 minutes at 4° C. Extracts were precleared with 20 μL protein A/G sepharose beads (a 50:50 mix) from Thermo scientific (Rockford, Ill.) and 2 μg of normal IgG. After microcentrifugation, 20 μL of protein A/G sepharose conjugated with 5 μg of antibody was used to precipitate HDAC2 (Santa Cruz Biotechnology, Santa Cruz, Calif.) overnight at 4° C. with rotation. The immune complexes were pelleted with gentle centrifugation, washed twice with 1 mL of immunoprecipitation buffer, and divided equally for the final wash for the activity assay and immunoblotting. For the HDAC assay, immunoprecipitates were resuspended in the activity assay buffer (50 mM TrisHCl, pH 8.0; 10% glycerol; 1 mM dithiothreitol; 0.1 mM EDTA, complete protease inhibitor cocktail). For HDAC2-specific western blotting, immune complexes were washed three times with the immunoprecipitation buffer and finally resuspended in Laemmli buffer for the SDS-PAGE.

[2] = tested on: HDAC2; assay: Posttranslational modification of HDAC2 in alveolar macrophages (immunoblot, DAN, biotin-switch); assay type: cell-based, human; conditions: for levels of SNO-HDAC2: GSNO-exposed alveolar macrophages
Method: S-nitrosylation of proteins was analyzed by anti-SNO antibody, biotin switch assay, and or 2,3-diaminonapthalene (DAN) assay. […] Detail methodology is described in supplementary data.
as §3
For HDAC2-specific nitrosylation detection, cells were lysed in buffer (50 mM Tris-HCl, pH 8.0, 150 mM NaCl, 1% Nonidet P-40, 0.5% deoxycholic acid, 0.1% SDS). […] The pellets were resuspended in 500 μL of PBS.
This assay was performed in the dark.
The Image J program was used for densitometry analyses.

[3] = tested on: IL-8; assay: Corticosteroid responsiveness: basal and LPS-induced IL-8 secretion by alveolar macrophages; assay type: cell-based, human
Method: as §1
For human IL-8 and mouse IL-6 and MCP-1 proteins, Quantikine ELISA kits from R&D systems (Minneapolis, Minn.) were used according to the manufacturer's instructions.

[4] = tested on: NO; assay: NO levels and iNOS expression in alveolar macrophages; assay type: cell-based, human; conditions: COPD alveolar macrophages, vs vehicle
Method: as §1, §2
(§4) Total RNA was extracted from the cells by lysis and specific binding to a silica membrance (Qiagen RNeasy kit, Qiagen, Valencia, Calif.), and qRT-PCR was performed by using primers and probe sets for human IL-8, NQO1, GCLM, and iNOS (Assay-on-Demand, Applied Biosystems, Foster City, Calif.). A real-time fluorescent PCR system (ABI 7000 Taqman system, Applied Biosystems) was used to perform these assays. β-actin was used as the normalization control.

[5] = target: T1, HDAC2 (Homo sapiens, UniProt Q92769); assay: Cell-free denitrosylation and activity of HDAC2 (cell lysates, IP-HDAC2); assay type: biochemical
T1 construct: HDAC2 was immunoprecipitated for analysis of enzymatic activity; endogenous in cells; host or cells: alveolar macrophages from patients with COPD; HDAC2 immunoprecipitated with the Santa Cruz antibody
T1 sequence (Q92769 whole entry): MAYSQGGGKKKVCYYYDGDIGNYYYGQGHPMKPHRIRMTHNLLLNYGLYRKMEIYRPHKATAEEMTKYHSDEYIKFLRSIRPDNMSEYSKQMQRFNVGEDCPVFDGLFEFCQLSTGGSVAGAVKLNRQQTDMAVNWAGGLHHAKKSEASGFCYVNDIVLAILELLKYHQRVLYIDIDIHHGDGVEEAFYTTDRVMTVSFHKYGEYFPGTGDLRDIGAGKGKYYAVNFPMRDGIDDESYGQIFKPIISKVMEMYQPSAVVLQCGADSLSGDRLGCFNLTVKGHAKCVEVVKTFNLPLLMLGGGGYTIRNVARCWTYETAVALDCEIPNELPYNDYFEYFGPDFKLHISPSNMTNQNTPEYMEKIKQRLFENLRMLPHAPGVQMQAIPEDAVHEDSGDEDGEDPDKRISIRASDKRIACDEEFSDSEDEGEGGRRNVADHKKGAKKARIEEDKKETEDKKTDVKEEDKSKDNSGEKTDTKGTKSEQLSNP
Method: as §2, §3
S-nitrosylated proteins were detected by using the nitrate/nitrite fluorometric assay kit from Cayman chemicals (Ann Arbor, Mich.) according to the manufacturer's instructions. For HDAC2-specific nitrosylation detection, cells were lysed in buffer (50 mM Tris-HCl, pH 8.0, 150 mM NaCl, 1% Nonidet P-40, 0.5% deoxycholic acid, 0.1% SDS). These lysates were then subjected to immunoprecipitation by using an anti-HDAC2 antibody as described above. The immunoprecipitates were washed twice with lysis buffer and twice with PBS. The pellets were resuspended in 500 μL of PBS. After the addition of 100 μM HgCl2 and 100 μM DAN, the samples were incubated in the dark at 25° C. for 30 minutes, and 1 M NaOH was added. The generated fluorescent triazole from the reaction of the DAN with the NO released from the HDAC2 protein was measured by using an excitation wavelength of 375 nm and an emission wavelength of 450 nm. As a negative control, the antibody alone in lysis buffer was immunoprecipitated. The resulting background fluorescence intensity was subtracted for each experiment.

[6] = target: recombinant HDAC2 (rHDAC2) (Homo sapiens, UniProt Q92769); assay: Cell-free enzymatic activity of recombinant HDAC2; assay type: biochemical
recombinant HDAC2 (rHDAC2), sequence (Q92769 whole entry, species assumed): as the sequence (Q92769 whole entry) above
Method: as §2

[7] = tested on: Pseudomonas aeruginosa; assay: Clearance of bacteria in vitro by alveolar macrophages (PA); assay type: cell-based; conditions: COPD alveolar macrophages
Method: Human alveolar macrophages were purified from individual BAL samples by centrifugation and seeded onto 6-well tissue culture plates. After incubation for 2 h, non-adherent cells were removed and the adherent cells were incubated with R, S-sulforaphane (5 μM; LKT Laboratories, Inc., St. Paul, Minn.) and or DMSO in RPMI 1640 culture medium with 10% FBS and 1% penicillin-streptomycin (Invitrogen, Carlsbad, Calif.). After 16-20 h, adherent cells were scraped, suspended in RPMI 1640 culture media and plated onto 96-well tissue culture plates for bacterial phagocytosis and clearance assays. […] For MARCO antibody-depletion, alveolar macrophages were incubated with human anti-MARCO antibody (1 μg/ml; (Hycult, Uden, The Netherlands) for 4 hours prior to bacterial challenge.
Sputum isolates of nontypeable H. influenzae and P. aeruginosa obtained from patients with COPD at the Department of Veterans Affairs, Western New York Healthcare System were used (S. Sethi, N. Evans, B. J. Grant, T. F. Murphy, N Engl J Med 347, 465 (Aug. 15, 2002); C. S. Berenson, M. A. Garlipp, L. J. Grove, J. Maloney, S. Sethi, J Infect Dis 194, 1375 (Nov. 15, 2006); T. F. Murphy et al., Am J Respir Crit Care Med 177, 853 (Apr. 15, 2008); T. F. Murphy, A. L. Brauer, A. T. Schiffmacher, S. Sethi, Am J Respir Crit Care Med 170, 266 (Aug. 1, 2004)). For bacterial growth, H. influenzae was cultured on chocolate agar or grown in brain heart infusion broth supplemented with 20 μg/mlNAD and 10 μg/ml hemin at 35° C. in 5% CO2. P. aeruginosa was cultured on LB agar plates or in LB broth at 37° C. For FITC-labeling of bacteria, heat inactivated PA and NTHI (10^9 CFU/ml) were resuspended in 1 ml of labeling buffer (0.1 M NaHCO3, pH 9.2) and incubated with fluorescein isothiocyanate (FITC) (Sigma) under constant stiffing in the dark at room temperature for 1 h. Finally, bacteria were washed three times with PBS and dialyzed overnight against PBS. FITC-labeled bacteria were resuspended with PBS at a concentration of 10^9/ml.
After treatment, macrophages (10^5 cells) were incubated with bacteria (PA or NTHI) for 4 h. Subsequently, 100 μL of cell free culture medium was aseptically plated and cultured on tryptose blood and or chocolate agar plates at 37° C. The number of bacterial colonies was counted after 24 h.

[8] = tested on: glutathione; assay: Intracellular glutathione levels in COPD macrophages; assay type: cell-based, human; conditions: COPD alveolar macrophages
[9] = tested on: IL-8 promoter; assay: ChIP of IL-8 promoter (histone acetylation, HDAC2 binding) in alveolar macrophages; assay type: cell-based, human
Method: as §1
Chromatin immunoprecipitation was performed as described previously (Hogg, J. C. & Timens, W., Annu Rev Pathol (2008)). Briefly, cells were fixed in ˜1% formaldehyde in cell growth media for 10 minutes followed by glycine fixation. Cells were then sonicated in ChIP-lysis buffer containing a protease inhibitor cocktail after incubation on ice for 30 minutes. […] sonication, the samples were spun at maximum speed for 12 minutes in a cold microcentrifuge. The supernatants were then addressed as input samples. A part of the input sample was precleared by using a 50% slurry of protein A/G beads prepared in immunoprecipitation (IP) buffer for 2 hours in the cold, following which the beads were centrifuged out and the supernatant was used for IP. Then the precleared samples were incubated with 2 μg of panacetylated histone H4 antibody (ChIP assay kit; Upstate Biotechnology) or anti-HDAC2 antibody from Santa Cruz Biotechnology. As a control, anti-rabbit IgG antibody was added for 1 hour in the cold. The protein A/G bead slurry was added to each reaction and was rotated overnight. The next day, the beads were washed extensively, and the DNA was reverse crosslinked, eluted in elution buffer, and stored at −80° C. until used for sequencing or PCR validation assays. […] This immunoprecipitated DNA was used for PCR amplification by using the specific gene (IL-8 for humans and MCP-1 for mice) promoter PCR assays. PCR primers were used for the IL-8 promoter (forward: 5′-[…]-3′ and reverse: 5′-[…]-3′) and the MCP-1 promoter (forward: 5′-[…]-3′ and reverse: 5′-[…]-3′).

[10] = tested on: HDAC2; assay type: cell-based, human; conditions: COPD alveolar macrophages
Method: as §1
All immunoblots were performed by using protocols as described previously (Barnes, P. J., N Engl J Med 343, 269-280 (2000)). Rabbit anti-HDAC2 antibody from Santa Cruz Biotechnology (Santa Cruz, Calif.) was used at 1:500 dilutions. Rabbit anti-5-nitroso-cysteine antibody from Alpha diagnostics was used at 1:500 dilutions. Rabbit anti-nitro-tyrosine antibody from Cell Signaling Technology, was used at 1:250 dilution. Rabbit anti-ubiquitin antibody from Santa Cruz Biotechnology (Santa Cruz, Calif.) was used at 1:1000 dilutions. Rabbit anti-GR antibody from Santa Cruz Biotechnology (Santa Cruz, Calif.) was used at a dilution of 1:1000. Rabbit anti-MMP9 antibody from Sigma Aldrich was used at 1:500 dilutions. Rabbit anti-acetyl-lysine antibody from Abcam was used at 1:750 dilutions. Rabbit anti-lamin-B1 from Santa Cruz Biotechnology (Santa Cruz, Calif.) was used at 1:1000 dilutions as a loading control. The Image J program was used for densitometry analyses.
as §4

[11] = COPD alveolar macrophages, result in words
[12] = cell lysates incubated with GSH

COC(=O)[C@@H](N)CCCNC(=N)N[N+](=O)[O-] [L-NAME, L-nitroarginine methyl ester]
HDAC2 enzymatic activity [1, 11]: failed to increase HDAC2 enzymatic activity | tyrosine nitration of HDAC2 (nitrotyrosine-HDAC2) ([2]; immunopurified HDAC2 from alveolar macrophages, compared with vehicle): significantly decreased levels of nitrotyrosine-HDAC2 | DEX's repressive effect on basal and LPS-induced IL-8 expression (DEX responsiveness) ([3]; protein and mRNA): failed | NO levels [4]: suppressed NO generation

N[C@@H](CCC(=O)N[C@@H](CS)C(=O)NCC(=O)O)C(=O)O [GSH, glutathione]
S-nitrosylation and enzymatic activity of GSNO-exposed IP-HDAC2 ([5]; after incubation with GSH): reversed by GSH treatment | HDAC2 activity [5, 12]: concurrent increase in HDAC2 activity | nitrosylation (DAN assay) [5, 12]: denitrosylation by GSH | rHDAC2 enzymatic activity after GSNO treatment ([6]; in the presence of GSH): restored by GSH

N[C@@H](CCC(=O)N[C@@H](CSN=O)C(=O)NCC(=O)O)C(=O)O [GSNO, S-nitrosoglutathione]
HDAC2 enzymatic activity [1, 11]: decreased HDAC2 enzymatic activity | S-nitrosylation of IP-HDAC2 ([5]; GSNO exposure): elevated S-nitrosylation | enzymatic activity of IP-HDAC2 ([5]; GSNO exposure): decreased enzymatic activity | rHDAC2 enzymatic activity ([6]; with GSNO): significantly inhibited rHDAC2 enzymatic activity | DEX resistance ([3]; GSNO exposure): did not further increase DEX resistance | LPS-induced IL-8 secretion ([3]; GSNO treatment (10 μM, 4 h)): moderately augmented LPS-induced IL-8 secretion

CCOC(=O)CNC(=O)[C@H](CS)NC(=O)CC[C@H](N)C(=O)O [GSH-e, GSH-ethyl ester]
HDAC2 enzymatic activity ([1]; treatment after GSNO exposure of alveolar macrophages): significantly elevated HDAC2 enzymatic activity | levels of SNO-HDAC2 [2]: significant reduction in the levels of SNO-HDAC2 | repressive effect of DEX on basal and LPS-induced IL-8 secretion ([3]; GSNO exposed COPD alveolar macrophages, GSH-e 1 mM): significantly increased the repressive effect of DEX | bacterial clearance [7]: failed to improve bacterial clearance | intracellular glutathione levels [8]: increased intracellular glutathione levels

CC(/C=C/C(=O)NO)=C\[C@@H](C)C(=O)c1ccc(N(C)C)cc1 [TSA, trichostatin]
basal and LPS-induced histone acetylation in the IL-8 promoter region ([9]; cotreatment with sulforaphane, with and without DEX): ablated sulforaphane repressed basal and LPS-induced histone acetylation

CC(C)C[C@@H](C=O)NC(=O)[C@H](CC(C)C)NC(=O)[C@H](CC(C)C)NC(=O)OCc1ccccc1 [MG132] (Cbz-Leu-Leu-Leu-aldehyde)
HDAC2 enzymatic activity [1, 11]: no increase in HDAC2 enzymatic activity | HDAC2 binding in the IL-8 promoter ([9]; COPD alveolar macrophages): no increase | HDAC2 protein levels [10]: increase in total HDAC2 protein

CC(=O)N[C@@H](CS)C(=O)O [NAC, N-acetyl cysteine]
levels of SNO-HDAC2 [2]: failed to ameliorate SNO-HDAC2 levels | bacterial clearance [7]: failed to improve bacterial clearance | intracellular glutathione levels [8]: increased intracellular glutathione levels
